Results reported in article PMC11369081, “Molecular mechanism of prolactin-releasing peptide recognition and signaling via its G protein-coupled receptor” (Cell Discovery, 2024).
Peptide text beside a SMILES is read from it.

Legend:
Type in all cases: cell-based
PrRPR Y120A = target: T1, PrRPR Y120A (Homo sapiens, UniProt P49683, Y120A); test: BRET2 Gi dissociation, Y120A; details: Y120A (2.64), Gi-coupling, AD293 cells; mean ± S.E.M., n = 3; P <0.0001 vs WT; read-out: BRET2 pEC50 (converted)
T1 construct: expressed in transfected cells; host or cells: AD293 cells
T1 sequence (P49683 whole entry Y120A): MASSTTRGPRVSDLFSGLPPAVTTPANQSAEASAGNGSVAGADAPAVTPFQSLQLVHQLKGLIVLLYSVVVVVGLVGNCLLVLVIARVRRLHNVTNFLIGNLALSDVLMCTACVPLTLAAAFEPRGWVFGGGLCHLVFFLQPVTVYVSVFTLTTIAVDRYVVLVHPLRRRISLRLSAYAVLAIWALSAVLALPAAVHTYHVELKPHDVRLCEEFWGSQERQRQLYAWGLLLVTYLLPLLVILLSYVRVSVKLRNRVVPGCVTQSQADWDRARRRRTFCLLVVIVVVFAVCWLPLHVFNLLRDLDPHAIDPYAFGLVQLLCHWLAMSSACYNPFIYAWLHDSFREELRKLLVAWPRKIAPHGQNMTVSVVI
Experimental: (§1) AD293 cells (Agilent) were propagated in Dulbecco’s Modified Eagle Medium (DMEM, Thermo Fisher Scientific), enriched with 10% fetal bovine serum (FBS, Thermo Fisher Scientific), and maintained at 37 °C in a 5% CO2 environment. Cells were then seeded in 6-well dishes at a density of 130,000–150,000 cells per mL and allowed to incubate overnight. On the next day, cells were transfected with plasmids at a 1:1:1:1 ratio for receptor:Gα-RLuc8:Gβ:Gγ-GFP2[52]. PEI MAX 40 K (BIOHUB) was utilized to form complex with the plasmids at a ratio of 3 µL PEI per µg of plasmids, in OptiMEM (Gibco-Thermo Fisher Scientific) at a concentration of 10 ng plasmids per µL OptiMEM. After 24 h of incubation, the culture was harvested by centrifugation with PBS. The cell suspension was then allocated into a white 384-well plate at a volume of 30 µL per well, followed by the addition of 10 µL of freshly prepared 50 µM coelenterazine 400a (Yeasen). Following a 15-min equilibration period, cells were treated with 10 µL of ligand for an additional 5 min. Plates were subsequently read in a BioTek Synergy H1 microplate reader (BioTek) equipped with 395 nm (RLuc8-coelenterazine 400a) and 510 nm (GFP2) emission filters. BRET2 ratios were calculated as the ratio of the GFP2 emission to RLuc8 emission. Data were normalized to the baseline response of the ligand. […]

PrRPR Q141A = target: T2, PrRPR Q141A (Homo sapiens, UniProt P49683, Q141A); test: BRET2 Gi dissociation, Q141A; details: Q141A (3.32), Gi-coupling, AD293 cells; mean ± S.E.M., n = 3; P 0.0002 vs WT; read-out: BRET2 pEC50 (converted)
T2 construct: expressed in transfected cells; host or cells: AD293 cells
T2 sequence (P49683 whole entry Q141A): as the sequence (P49683 whole entry Y120A) above, with A120Y, Q141A counted along it
Experimental: as §1

PrRPR E212A = target: T3, PrRPR E212A (Homo sapiens, UniProt P49683, E212A); test: BRET2 Gq dissociation, E212A; details: E212A (45.51), Gq-coupling, AD293 cells; mean ± S.E.M., n = 3; P <0.0001 vs WT; read-out: BRET2 pEC50 (converted)
T3 construct: expressed in transfected cells; host or cells: AD293 cells
T3 sequence (P49683 whole entry E212A): as the sequence (P49683 whole entry Y120A) above, with A120Y, E212A counted along it
Experimental: as §1, with “Following a 15-min equilibration period, cells were treated with 10 µL of ligand for an additional 5 min.” left out, “emission.” for “emission. Data were normalized to the baseline response of the ligand.”
(§2) Supplementary Fig. S4 | Effects of mutations in the ligand-binding pocket and G protein intereface of Gq coupled PrRPR by BRET2 assay. […] BRET2 assay signals were measured after stimulation with PrRP20. […]

PrRPR D302A = target: T4, PrRPR D302A (Homo sapiens, UniProt P49683, D302A); test: BRET2 Gi dissociation, D302A; details: D302A (6.59), Gi-coupling, AD293 cells; mean ± S.E.M., n = 3; P <0.0001 vs WT; read-out: BRET2 pEC50 (converted)
T4 construct: Flag; expressed in transfected cells; host or cells: AD293 cells
T4 sequence (P49683 whole entry D302A): as the sequence (P49683 whole entry Y120A) above, with A120Y, D302A counted along it
Experimental: as §1

PrRPR L229A = target: T5, PrRPR L229A (Homo sapiens, UniProt P49683, L229A); test: BRET2 Gq dissociation, L229A; details: L229A (5.42), Gq-coupling, AD293 cells; mean ± S.E.M., n = 3; P <0.0001 vs WT; read-out: BRET2 pEC50 (converted)
T5 construct: Flag; expressed in transfected cells; host or cells: AD293 cells
T5 sequence (P49683 whole entry L229A): as the sequence (P49683 whole entry Y120A) above, with A120Y, L229A counted along it
Experimental: as §1, with “Following a 15-min equilibration period, cells were treated with 10 µL of ligand for an additional 5 min.” left out, “emission.” for “emission. Data were normalized to the baseline response of the ligand.”
as §2

PrRPR N298A = target: T6, PrRPR N298A (Homo sapiens, UniProt P49683, N298A); test: BRET2 Gi dissociation, N298A; details: N298A (6.55), Gi-coupling, AD293 cells; mean ± S.E.M., n = 3; P 0.0022 vs WT; read-out: BRET2 pEC50 (converted)
T6 construct: Flag; expressed in transfected cells; host or cells: AD293 cells
T6 sequence (P49683 whole entry N298A): as the sequence (P49683 whole entry Y120A) above, with A120Y, N298A counted along it
Experimental: as §1

PrRPR C113A = target: T7, PrRPR C113A (Homo sapiens, UniProt P49683, C113A); test: BRET2 Gi dissociation, C113A; details: C113A (2.57), Gi-coupling, AD293 cells; mean ± S.E.M., n = 3; P 0.0008 vs WT; read-out: BRET2 pEC50 (converted)
T7 construct: expressed in transfected cells; host or cells: AD293 cells
T7 sequence (P49683 whole entry C113A): as the sequence (P49683 whole entry Y120A) above, with C113A, A120Y counted along it
Experimental: as §1

PrRPR T233A = target: T8, PrRPR T233A (Homo sapiens, UniProt P49683, T233A); test: BRET2 Gq dissociation, T233A; details: T233A (5.46), Gq-coupling, AD293 cells; mean ± S.E.M., n = 3; P <0.0001 vs WT; read-out: BRET2 pEC50 (converted)
T8 construct: Flag; expressed in transfected cells; host or cells: AD293 cells
T8 sequence (P49683 whole entry T233A): as the sequence (P49683 whole entry Y120A) above, with A120Y, T233A counted along it
Experimental: as §1, with “Following a 15-min equilibration period, cells were treated with 10 µL of ligand for an additional 5 min.” left out, “emission.” for “emission. Data were normalized to the baseline response of the ligand.”
as §2

PrRPR L203A = target: T9, PrRPR L203A (Homo sapiens, UniProt P49683, L203A); test: BRET2 Gq dissociation, L203A; details: L203A (ECL2), Gq-coupling, AD293 cells; mean ± S.E.M., n = 3; P 0.0021 vs WT; read-out: BRET2 pEC50 (converted)
T9 construct: expressed in transfected cells; host or cells: AD293 cells
T9 sequence (P49683 whole entry L203A): as the sequence (P49683 whole entry Y120A) above, with A120Y, L203A counted along it
Experimental: as §1, with “Following a 15-min equilibration period, cells were treated with 10 µL of ligand for an additional 5 min.” left out, “emission.” for “emission. Data were normalized to the baseline response of the ligand.”
as §2

PrRPR L294A = target: T10, PrRPR L294A (Homo sapiens, UniProt P49683, L294A); test: BRET2 Gq dissociation, L294A; details: L294A (6.51), Gq-coupling, AD293 cells; mean ± S.E.M., n = 3; P <0.0001 vs WT; read-out: BRET2 pEC50 (converted)
T10 construct: Flag; expressed in transfected cells; host or cells: AD293 cells
T10 sequence (P49683 whole entry L294A): as the sequence (P49683 whole entry Y120A) above, with A120Y, L294A counted along it
Experimental: as §1, with “Following a 15-min equilibration period, cells were treated with 10 µL of ligand for an additional 5 min.” left out, “emission.” for “emission. Data were normalized to the baseline response of the ligand.”
as §2

EC50 (PrRPR Y120A): 3390 nM
EC50 (PrRPR Q141A): 7.59 nM
EC50 (PrRPR E212A): 28.8 nM
EC50 (PrRPR D302A): 1120 nM
EC50 (PrRPR L229A): 20.4 nM
EC50 (PrRPR N298A): 6.31 nM
EC50 (PrRPR C113A): 7.08 nM
EC50 (PrRPR T233A): 5.75 nM
EC50 (PrRPR L203A): 3.09 nM
EC50 (PrRPR L294A): 5.62 nM
Compound: CC[C@H](C)[C@H](NC(=O)CNC(=O)[C@H](CCCNC(=N)N)NC(=O)[C@H](CO)NC(=O)[C@H](C)NC(=O)[C@H](Cc1ccc(O)cc1)NC(=O)[C@H](Cc1c[nH]c2ccccc12)NC(=O)[C@H](C)NC(=O)[C@@H]1CCCN1C(=O)[C@H](CC(N)=O)NC(=O)[C@@H](NC(=O)[C@H](CC(=O)O)NC(=O)[C@@H]1CCCN1C(=O)[C@@H](N)[C@@H](C)O)[C@@H](C)CC)C(=O)N[C@@H](CCCNC(=N)N)C(=O)N1CCC[C@H]1C(=O)N[C@H](C(=O)NCC(=O)N[C@@H](CCCNC(=N)N)C(=O)N[C@@H](Cc1ccccc1)C(N)=O)C(C)C [PrRP20] (H-TPDINPAWYASRGIRPVGRF-NH2)
